Experimental data reported in patent US20230355594A1, “TOPICAL OPHTHALMOLOGICAL COMPOSITIONS” (ADS THERAPEUTICS LLC, priority 2020, published 2023).
Several values for one entry are separate records, joined by “and”; a condition that tells them apart may be missing. Equal entries are not always repeated. Where two headings read alike, the source gives them in different places.

Settings: for Atropine concentraion, Observed stable concentration after 10X serial dilution of the saturating concentration: successive 10X dilutions
[1] = 99.25% F6H8, 0.75% phenylethyl alcohol

CN1[C@@H]2CC[C@H]1C[C@@H](OC(=O)C(CO)c1ccccc1)C2 (stereo partly shown) [atropine]
Atropine concentraion, Measured saturating concentraion by HPLC/UV (98.00% F6H8, 2.00% isopropanol): 0.153 w/w %
Atropine concentraion, Measured saturating concentraion by HPLC/UV (99.25% F6H8, 0.75% ethanol): 0.108 w/w %
Atropine concentraion, Observed stable concentration after 10X serial dilution of the saturating concentration (99.25% F6H8, 0.75% ethanol): 0.0108 w/w % and 0.00108 w/w % and 0.000108 w/w %
Atropine concentraion, Measured saturating concentraion by HPLC/UV (99.25% F6H8, 0.75% isopropanol): 0.082 w/w %
Atropine concentraion, Observed stable concentration after 10X serial dilution of the saturating concentration (99.25% F6H8, 0.75% isopropanol): 0.0082 w/w % and 0.00082 w/w % and 0.000082 w/w %
Atropine concentraion, Measured saturating concentraion by HPLC/UV [1]: 0.085 w/w %
Atropine concentraion, Observed stable concentration after 10X serial dilution of the saturating concentration [1]: 0.0085 w/w % and 0.00085 w/w % and 0.000085 w/w %
Atropine concentraion, Measured saturating concentraion by HPLC/UV (99.50% F6H8, 0.50% ethanol): 0.089 w/w %
Atropine concentraion, Measured saturating concentraion by HPLC/UV (99.50% F6H8, 0.50% isopropanol): 0.055 w/w %
Atropine concentraion, Measured saturating concentraion by HPLC/UV (99.50% F6H8, 0.50% phenylethyl alcohol): 0.055 w/w %
Atropine concentraion, Measured saturating concentraion by HPLC/UV (99.75% F6H8, 0.25% ethanol): 0.031 w/w %
Atropine concentraion, Measured saturating concentraion by HPLC/UV (99.75% F6H8, 0.25% isopropanol): 0.046 w/w %
Atropine concentraion, Measured saturating concentraion by HPLC/UV (99.75% F6H8, 0.25% phenylethyl alcohol): 0.043 w/w %
